Source: patent US6331548A, “1-cycloalkyl-1,8-naphthyridin-4-one derivative as type IV phosphodiesterase inhibitor” (Suntory Limited, priority 1998, dated 2001)

Columns and labels:
[1] = target: type IV phosphodiesterase; test: Type IV phosphodiesterase inhibiting activity; assay type: biochemical, human; conditions: U937 type IV phosphodiesterase fraction, 0.28 μM cAMP, pH 7.5, 30° C., 30 minutes; read-out: PDEIV-IC50
Method in brief: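 PDE4 fraction from U937 cell lysate, separated on DEAE Sepharose, incubated with compound, 0.4 μCi 3H-cAMP (0.28 μM cAMP) and 5'-nucleotidase in Tris-HCl pH 7.5 with 1 mM MgCl2 for 30 min at 30 °C. Product radioactivity counted after QAE-Sephadex removal of substrate.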

[2] = test system: TNF-α production by LPS stimulated macrophages; test: TNF-α production inhibitory activity by LPS stimulated macrophages; assay type: cell-based; conditions: Macrophage, BALB/c mouse peritoneal macrophages, cultured for 8 hours, ELISA
Protocol: The following assay was used to evaluate the ability of the compound of the present invention to suppress TNF-α production by LPS stimulated macrophages according to Immunopharmacol. 29, 121-127 (1995).
1) 6 to 10 week old female BALB/c mice were used, 2 ml portions of thioglycolate were intraperitoneally administered, and the abdominal cavities were washed by 10 ml of PBS after 4 days, whereby 1 to 2×10^7 peritoneal cells were obtained per mouse. These were suspended in a hemocyte solution (0.75% ammonium chloride, 17 mM tris-hydrochlorate buffer, pH7.2), centrifuged, then resuspended in an RPMI1640 medium including 10% fetal calf serum and seeded in a 96-well cell culture plate at a density of 1×10^5 cells/50 μl/well. Since these cells adhered strongly to the tissue culture plate and were positive in nonspecific esterase staining, they were used for the test as mouse peritoneal macrophages. Mouse peritoneal macrophages were precultured overnight at 37° C. in […] for the experiment.
2) E. Coli (serum type 055:B5) derived LPS was dissolved in PBS in a concentration of 1 mg/ml, then sterilized by filtration. The test compound was dissolved in DMSO to make a 1000-fold concentration solution of the final concentration of use. 10 μl of the above LPS stock solution (final concentration 10 μg/ml) and 1 μl of the tested substance stock solution were added and mixed in 0.5 ml of RPMI1640 medium containing 10% fetal calf serum. This was added to the above cells at 50 μl/well and cultured for 8 hours. The cultured supernatant was recovered from each well and the TNF-α concentration was measured by the ELISA method (Cytoscreen® Immunoassay Kit Mouse TNF-α, BioSourse International).
The comparative example was the compound described in WO-A-97-04775, Example 1, mentioned above.

[3] = test system: mice; test: Toxicity: death on intraperitoneal administration to mice for 5 weeks; assay type: in vivo; conditions: 10 mg/kg per day intraperitoneally for 5 weeks
Excerpt: Further, the compounds of the present invention are low in toxicity, and these compounds are expected to be high in safety.

| Compound | IC50 [1] [nM] | IC50 [2] [nM] | death [3] |
| --- | --- | --- | --- |
| COC(=O)N1CCC(n2cc(C(=O)Nc3c(Cl)cncc3Cl)c(=O)c3cccnc32)CC1 [Example 26, N-(3,5-dichloropyridin-4-yl)-1-(1-methoxycarbonylpiperidin-4-yl)-1,4-dihydro[1,8]naphthylidin-4-one-3-carboxamide] | 0.9 | 0.2 | no death |
| COC(=O)N1CC[C@H](n2cc(C(=O)Nc3c(Cl)cncc3Cl)c(=O)c3cccnc32)C1 [Example 11, (S)-N-(3,5-dichloropyridin-4-yl)-1-(1-methoxycarbonylpyrrolidin-3-yl)-1,4-dihydro[1,8]naphthyridin-4-one-3-carboxamide] | 1.7 | 4 | no death |
| O=C(Nc1c(Cl)cncc1Cl)c1cn(C2CCN(C(=O)OCc3ccccc3)CC2)c2ncccc2c1=O [Example 25, N-(3,5-dichloropyridin-4-yl)-1-(1-benzyloxycarbonylpiperidin-4-yl)-1,4-dihydro[1,8]naphthylidin-4-one-3-carboxamide] | 0.9 | 0.4 | no death |
| O=C(Nc1ccncc1)c1cn(C2CC2)c2ncccc2c1=O [Example 139, N-(4-pyridyl)-1-cyclopropyl-1,4-dihydro[1,8]naphthylidin-4-one-3-carboxamide] | 240 | 370 | no death |
| O=C(Nc1ccncc1)c1cn(N2CCOCC2)c2ncccc2c1=O [Example 106, N-(4-pyridyl)-1-(1-morpholino)-1,4-dihydro[1,8]naphthylidin-4-one-3-carboxamide] | 140 | 90 | no death |
| O=C(Nc1c(Cl)cncc1Cl)c1cn([C@H]2CC[C@H](O)CC2)c2ncccc2c1=O [Example 117, N-(3,5-dichloropyridin-4-yl)-1-(trans-4-hydroxycyclohexyl)-1,4-dihydro[1,8]naphthylidin-4-one-3-carboxamide] | 3.7 | 2 | no death |
| O=C(Nc1c(Cl)cncc1Cl)c1cn([C@H]2CCN(C(=O)OCc3ccccc3)C2)c2ncccc2c1=O [Example 10, (S)-N-(3,5-dichloropyridin-4-yl)-1-(1-benzyloxycarbonylpyrrolidin-3-yl)-1,4-dihydro[1,8]naphthyridin-4-one-3-carboxamide] | 1.5 | 10 | no death |
| COC(=O)N1CC(n2cc(C(=O)Nc3c(Cl)cncc3Cl)c(=O)c3cccnc32)C1 [Example 34, N-(3,5-dichloropyridin-4-yl)-1-(1-methoxycarbonylazetidin-3-yl)-1,4-dihydro[1,8]naphthylidin-4-one-3-carboxamide] | 24 | 80 | no death |
| COC(=O)N1CC[C@@H](n2cc(C(=O)Nc3c(Cl)cncc3Cl)c(=O)c3cccnc32)C1 [Example 17, (R)-N-(3,5-dichloropyridin-4-yl)-1-(1-methoxycarbonylpyrrolidin-3-yl)-1,4-dihydro[1,8]naphthylidin-4-one-3-carboxamide] | 4.8 | 10 | – |
| CO[C@H]1CC[C@H](n2cc(C(=O)Nc3c(Cl)cncc3Cl)c(=O)c3cccnc32)CC1 [Example 127, N-(3,5-dichloropyridin-4-yl)-1-(trans-4-methoxycyclohexyl)-1,4-dihydro[1,8]naphthylidin-4-one-3-carboxamide] | 7.2 | 15 | no death |
| O=C(Nc1c(Cl)cncc1Cl)c1cn(C2CC2)c2ncccc2c1=O [Example 140, N-(3,5-dichloropyridin-4-yl)-1-cyclopropyl-1,4-dihydro[1,8]naphthylidin-4-one-3-carboxamide] | 2.5 | 10 | – |
| CN(C)C(=O)[C@@H]1C[C@H](n2cc(C(=O)Nc3c(Cl)cncc3Cl)c(=O)c3cccnc32)CN1 [Example 93, N-(3,5-dichloropyridin-4-yl)-1-[(3S,5S)-(5-dimethylaminocarbonyl)pyrrolidin-3-yl]-1,4-dihydro[1,8]naphthylidin-4-one-3-carboxamide] | 69 | 2000 | – |
| O=C(Nc1ccncc1Cl)c1cn([C@H]2CC[C@H](O)CC2)c2ncccc2c1=O [Example 122, N-(3-chloropyridin-4-yl)-1-(trans-4-hydroxycyclohexyl)-1,4-dihydro[1,8]naphthylidin-4-one-3-carboxamide] | 200 | 1200 | – |
| COC(=O)N1CCN(n2cc(C(=O)Nc3c(Cl)cncc3Cl)c(=O)c3cccnc32)CC1 [Example 56, N-(3,5-dichloropyridin-4-yl)-1-(4-methoxycarbonylpiperazin-1-yl)-1,4-dihydro[1,8]naphthylidin-4-one-3-carboxamide] | 1.6 | 15 | no death |
| O=C1CCC(n2cc(C(=O)Nc3c(Cl)cncc3Cl)c(=O)c3cccnc32)CC1 [Example 120, N-(3,5-dichloropyridin-4-yl)-1-(4-oxocyclohexyl)-1,4-dihydro[1,8]naphthylidin-4-one-3-carboxamide] | 2.7 | 0.7 | no death |
| O=C(O)CN1CCC(n2cc(C(=O)Nc3c(Cl)cncc3Cl)c(=O)c3cccnc32)CC1 [Example 50] | 100 | 7000 | – |
| O=C(Nc1c(Cl)cncc1Cl)c1cn([C@H]2CCOC2)c2ncccc2c1=O [Example 44, N-(3,5-dichloropyridine-4-yl)-1-[(S)-tetrahydro-3-furanyl]-1,4-dihydro[1,8]naphthylidin-4-one-3-carboxamide] | 2.7 | 10 | – |
| O=C(Nc1c(Cl)cncc1Cl)c1cn([C@H]2C[C@H]3COC(=O)N3C2)c2ncccc2c1=O [Example 86, N-(3,5-dichloropyridine-4-yl)-1-[(5S,7S)-1-aza-3-oxabicyclo[3,3,0]octan-2-one-7-yl]-1,4-dihydro[1,8]naphthylidin-4-one-3-carboxamide] | 140 | 3000 | – |
| CN1CCC(n2cc(C(=O)Nc3c(Cl)cncc3Cl)c(=O)c3cccnc32)CC1 [Example 51, N-(3,5-dichloropyridin-4-yl)-1-(1-methylpiperidin-4-yl)-1,4-dihydro[1,8]naphthylidin-4-one-3-carboxamide] | 43 | 50 | – |
